US10213418B2, “Therapeutic uses of berberine formulations” (TWi Biotechnology, Inc., priority 2013, dated 2019)
Where two headings read alike, the source gives them in different places. Blank lines part the entries; values can stand above or below the compound they belong to.

Key:
[1] = patients on therapy; cited from earlier work
Solubility = format: physicochemical
[2] = Partition coefficient in an octanol-water system; format: physicochemical; details: berberine alone

Compound: ipilimumab: anti-CTLA-4 inhibitor
- maculopapular rash described [1]: 33 % of patients

- solubility (Solubility; aqueous berberine solubility): 1570 µg/mL
- solubility (Solubility; medium containing SDS (sodium dodecyl sulfate), aqueous with cosolvent or surfactant or cyclodextrin, pH of between 4 and 7, read-out: berberine solubility in the presence of SDS): 10 to 60 µg/mL
- solubility (Solubility; water, aqueous berberine solubility, read-out: solubility): 1570 µg/mL
- logP [2]: 0.0294
Compound: COc1ccc2cc3[n+](cc2c1OC)CCc1cc2c(cc1-3)OCO2 [berberine, 5,6-dihydro-9,10-dimethoxybenzo(g)-1,3-benzodioxolo (5,6-a) quinolizinium]

Compound: CN(C)C/C=C/C(=O)Nc1cc2c(Nc3ccc(F)c(Cl)c3)ncnc2cc1O[C@H]1CCOC1 [afatinib]
- papulopustular rash reported [1]: 90 % of patients

Compound: NC1(c2ccc(-c3nc4ccn5c(=O)[nH]nc5c4cc3-c3ccccc3)cc2)CCC1 [MK2206]
- maculopapular rash described [1]: 52 % of patients

Compound: Cn1cnc2c(F)c(Nc3ccc(Br)cc3Cl)c(C(=O)NOCCO)cc21 [selumetinib]
- papulopustular rash reported [1]: 93 % of patients

Compound: Nc1cc(C(F)(F)F)c(-c2cc(N3CCOCC3)nc(N3CCOCC3)n2)cn1 [BKM-120]
- maculopapular rash described [1]: 37 % of patients

Compound: nivolumab: anti-PD-1 inhibitor
- maculopapular rash described [1]: 26 % of patients
